Measurements taken from US20070065898A1, “Fluorescence polarization assays for binding of caspase inhibitors and probes therefor” (Wyeth, priority 2005, published 2007).

Molecular target: T1, caspase 3 (Homo sapiens, UniProt P42574)
T1 construct: His tag (C); made in house; host or cells: E. coli
T1 sequence (P42574 29-175 limits assumed): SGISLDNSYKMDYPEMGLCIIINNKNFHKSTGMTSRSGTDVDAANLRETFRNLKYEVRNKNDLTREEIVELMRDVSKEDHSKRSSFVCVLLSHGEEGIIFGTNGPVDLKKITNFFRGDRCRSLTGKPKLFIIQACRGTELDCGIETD
T1 sequence (P42574 176-277 limits assumed): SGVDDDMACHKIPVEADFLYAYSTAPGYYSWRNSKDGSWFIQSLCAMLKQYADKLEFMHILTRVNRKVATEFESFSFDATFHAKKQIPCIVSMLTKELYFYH
Assay: Determination of probe IC50: caspase inhibition assay, cleavage of fluorogenic substrate Ac-DEVD-AFC
Type: biochemical
Conditions: substrate Ac-DEVD-AFC 25 μM; caspase added last; cleavage monitored 90 minutes, ex 400 nm / em 505 nm
Procedure: This standard pharmacological test procedure to assess the inhibition of recombinant caspase 3 activity of selected compounds was adapted from Thornbery, N., J. Biol. Chem. 1997 272(29) 17907-17911 and Stennicke, H. R. et al., J. Biol. Chem. 1997 272(41) 25719-25723. The procedure used and results obtained are briefly described below.
Caspase 3 was assayed at 23° C. (room temp) in 96-well plates using the internally quenched tetrapeptide substrate N-acetyl-aspartyl-glutamyl-valyl-aspartate-7-amino-4-trifluoromethyl coumarin (Ac-DEVD-AFC purchased from Biomol). The assays are conducted at pH 7.2 in a buffered system containing 20 mM PIPES, 100 mM NaCl, 1 mM EDTA, 0.1% CHAPS, 10% sucrose and 5 mM L-cysteine. The final concentration of the substrate is 25 μM. Enzymic cleavage between the aspartate and the AFC fluorophore liberates 7-amino-4-trifluoromethyl coumarin which is detected using an excitation wavelength of 400 nm and an emission wavelength of 505 nm in a SpectraMax GeminiXS plate reader operated at room temperature. A steady state rate of substrate cleavage is obtained for analysis. […]
The substrate Ac-DEVD-AFC (25 μM) was added to varying inhibitor (probe) concentrations ranging from 20 μM to 2 nM. […] The cleavage of the substrate by the enzyme (caspase) was monitored continuously for 90 minutes by exciting the substrate at 400 nm and monitoring the fluorescence at emission at 505 nm. […]

Structure (SMILES)	IC50
CN1C(=O)C(=O)c2cc(S(=O)(=O)N3CCC[C@H]3CNC(=O)c3ccc(-c4c5ccc(=O)cc-5oc5cc(O)ccc45)c(C(=O)O)c3)ccc21 [Example 1, 2-(6-Hydroxy-3-oxo-3H-xanthen-9-yl)-5-{[({(2S)-1-[(1-methyl-2,3-dioxo-2,3-dihydro-1H-indol-5-yl)sulfonyl]pyrrolidin-2-yl}methyl)amino]carbonyl}benzoic acid]	10 nM
CN1C(=O)C(=O)c2cc(S(=O)(=O)N3CCC[C@H]3CNC(=O)CCCCCNC(=O)c3ccc(-c4c5ccc(=O)cc-5oc5cc(O)ccc45)c(C(=O)O)c3)ccc21 [Example 2, 2-(6-Hydroxy-3-oxo-3H-xanthen-9-yl)-5-[({6-[({(2S)-1-[(1-methyl-2,3-dioxo-2,3-dihydro-1H-indol-5-yl)sulfonyl]pyrrolidin-2-yl}methyl)amino]-6-oxohexyl}amino)carbonyl]benzoic acid]	15 nM
